Laboratory results published in patent US7659299B2, “Compounds inhibiting the binding of sap for treating osteoarthritis” (Pentraxin Therapeutics Limited, priority 2003, dated 2010).

How the values were obtained:
[1] = target: T1, SAP (Homo sapiens, UniProt P02743); assay: Inhibition of binding of 125I radiolabelled SAP to Neisseria meningitidis immobilized in microtitre plates; design: 5 μl of radiolabelled SAP in TN; from tissue; conditions: read-out: Percent inhibition of binding of radiolabelled SAP to immobilized Neisseria meningitidis
Experimental: A suspension of heat killed Neisseria meningitidis at 1×10^8 organisms per ml in PBS was dispensed to polystyrene microtitre plates at 50 μl volumes per well, and left overnight at 4° C. All wells were then washed three times with 200 μl volumes of PBS containing 0.05% v/v Tween 20, prior to equilibration for 2 min with 0.01M Tris buffered 0.14M NaCl/0.002M CaCl2 at pH 8.0 (TC buffer), containing 4% w/v BSA and 0.05%/v Tween 20 (TCBT buffer). The wells were then emptied before adding to each one the following reagents. […] For background, non-specific, non calcium dependent, binding in the presence of EDTA: 5 μl radiolabelled SAP in TN and 45 μl 0.01M Tris buffered 0.14M NaCl at pH 8.0 containing 11.1 mM EDTA, 4.4% w/v BSA and 0.06% w/v Tween 20 (TEBT buffer) to provide final concentrations of EDTA, 10 mM; BSA, 4%; Tween 20, 0.05%. […] All wells were then incubated at room temperature for 2 h before being washed three times with 200 μl volumes of TCBT, allowed to dry for 1 h at room temperature, and bound radiolabelled SAP was then counted.
The capacity of the compounds tested to inhibit binding of SAP to meningococci is expressed as the percentage by which SAP binding was reduced compared to binding in the absence of any inhibitor (Table 1).

[2] = target: T1, SAP; assay: Inhibition of binding of 125I radiolabelled SAP to native long chromatin immobilized in microtitre plates; design: 5 μl of radiolabelled SAP in TN; from tissue; conditions: read-out: Percent inhibition of binding of radiolabelled SAP to immobilized native long chromatin
[3] = target: T1, SAP; assay: Inhibition of binding of 125I radiolabelled SAP to influenza virus immobilized in microtitre plates; design: 5 μl of radiolabelled SAP in TN; from tissue; conditions: read-out: Percent inhibition of binding of radiolabelled SAP to immobilized influenza virus
Experimental: A concentrated suspension of purified influenza virus A/Shanghai/24/90 at 10 mg protein per ml in PBS was diluted 1:50 in PBS and then dispensed to polystyrene microtitre plates at 50 μl volumes per well, and left overnight at 4° C. All wells were then emptied before blocking by addition to each well of 200 μl of 2% w/v BSA in PBS and incubation at room temperature for 1 h. All wells were then washed three times with 200 μl volumes of PBS containing 0.05% v/v Tween 20, prior to equilibration for 2 min with 0.01M Tris buffered 0.14M NaCl/0.002M CaCl2 at pH 8.0 (TC buffer), containing 4% w/v BSA and 0.05% v/v Tween 20 (TCBT buffer). The wells were then emptied before adding to each one the following reagents. […] For background, non-specific, non calcium dependent, binding in the presence of EDTA: 5 μl radiolabelled SAP in TN and 45 μl 0.01M Tris buffered 0.14M NaCl at pH 8.0 containing 11.1 mM EDTA, 4.4% w/v BSA and 0.06% w/v Tween 20 (TEBT buffer) to provide final concentrations of EDTA, 10 mM; BSA, 4%; Tween 20, 0.05%. […] All wells were then incubated at room temperature for 2 h before being washed three times with 200 μl volumes of TCBT, allowed to dry for 1 h at room temperature, and bound radiolabelled SAP was then counted. The compounds tested in the experiment shown here were the same as those specified in Example B above.
The capacity of the compounds tested to inhibit binding of SAP to the immobilised influenza virus is expressed as the percentage by which SAP binding was reduced compared to binding in the absence of any inhibitor (Table 3).

[4] = target: T1, SAP; assay: Lead identification: inhibition of ligand binding by SAP (SAP binding to amyloid fibrils, high throughput screening); conditions: compared with the original hit Ro-15-3479
Description: The compounds tested in the experiment shown here were a family of molecules developed as inhibitors of SAP binding to amyloid fibrils, following identification of an initial lead molecule during high throughput screening of a large compound library according to U.S. Pat. No. 6,126,918. […] A chemistry programme then produced, (R)-1-[6-(R)-2-Carboxy-pyrrolidin-1-yl]-6-oxo-hexanoyl]pyrrolidine-2-carboxylic acid (Ro-63-8695) (Example 8b of EP-A-915088) and a family of related molecules, that were tested here.

T1 sequence (P02743 20-223): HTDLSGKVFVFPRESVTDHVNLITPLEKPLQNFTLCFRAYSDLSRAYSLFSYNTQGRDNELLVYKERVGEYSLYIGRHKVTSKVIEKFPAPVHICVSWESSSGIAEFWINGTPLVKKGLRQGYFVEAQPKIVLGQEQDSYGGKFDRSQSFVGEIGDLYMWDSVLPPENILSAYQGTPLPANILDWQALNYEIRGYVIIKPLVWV

## C[C@H](CSSC[C@@H](C)C(=O)N1CCC[C@@H]1C(=O)O)C(=O)N1CCC[C@@H]1C(=O)O [Ro-63-3300, (R)-1-[(S)-3-[(S)-3-[(R)-2-carboxy-pyrrolidin-1-yl]-2-methyl-3-oxo-propyldisulfanyl]-2-methyl-propionyl]-pyrrolidine-2-carboxylic acid]
[1]; compound 200 nM
  inhibition at 0.2 µM: 28%
[1]; compound 2 μM
  inhibition at 2 µM: 68%
[1]; compound 20 μM
  inhibition at 20 µM: 73%
[1]; compound 2 mM
  inhibition at 2000 µM: 100%
[2]; compound 200 nM
  inhibition at 0.2 µM: 3%
[2]; compound 2 μM
  inhibition at 2 µM: 34%
[2]; compound 20 μM
  inhibition at 20 µM: 69%
[2]; compound 200 μM
  inhibition at 200 µM: 88%
[2]; compound 2 mM
  inhibition at 2000 µM: 99%
[3]; compound 200 nM
  inhibition at 0.2 µM: 47%
[3]; compound 2 μM
  inhibition at 2 µM: 78%
[3]; compound 20 μM
  inhibition at 20 µM: 90%
[3]; compound 200 μM
  inhibition at 200 µM: 91%
[3]; compound 2 mM
  inhibition at 2000 µM: 91%
[4]
  Inhibition of ligand binding by SAP, in words: much more potent
